In PMC4991273 (2016):

Columns and labels:
[1] = tested on: ss17 (DNA, single strand) CCAGTTCGTAGTAACCC; test: fluorescence emission titration; details: K+ 100 mM; 10 mM lithium cacodylate, pH 7.3; 2 μM compound; per motif of 5 bases; per site
[2] = tested on: TBA (DNA, G4) GGTTGGTGTGGTTGG; test: fluorescence emission titration; details: K+ 100 mM; 10 mM lithium cacodylate, pH 7.3; 2 μM compound; per site
[3] = tested on: myc2345 (DNA, G4) TGAGGGTGGGGAGGGTGGGGAA; test: fluorescence emission titration; details: K+ 100 mM; 10 mM lithium cacodylate, pH 7.3; 2 μM compound; per motif (2 compounds per G-quadruplex); per site
[4] = tested on: PDGF-A (DNA, G4) GGAGGCGGGGGGGGGGGGGCGGGGGCGGGGGCGGGGGAGGGGCGCGGC; test: fluorescence emission titration; details: K+ 100 mM (DNA annealed in 25 mM KCl); 10 mM lithium cacodylate, pH 7.3; 2 μM compound
[5] = tested on: ds17 (DNA, duplex) CCAGTTCGTAGTAACCC/GGGTTACTACGAACTGG; test: fluorescence emission titration; details: K+ 100 mM; 10 mM lithium cacodylate, pH 7.3; 2 μM compound; per motif (2 compounds per 5 base pairs); per site
[6] = tested on: TBA (DNA, G4) GGTTGGTGTGGTTGG; test: fluorescence enhancement and lifetime (TCSPC); details: K+ 100 mM; 10 mM lithium cacodylate, pH 7.3; 2 μM compound
[7] = tested on: myc2345 (DNA, G4) TGAGGGTGGGGAGGGTGGGGAA; test: fluorescence enhancement and lifetime (TCSPC); details: K+ 100 mM; 10 mM lithium cacodylate, pH 7.3; 2 μM compound
[8] = tested on: ss17 (DNA, single strand) CCAGTTCGTAGTAACCC; test: fluorescence enhancement and lifetime (TCSPC); details: K+ 100 mM; 10 mM lithium cacodylate, pH 7.3; 2 μM compound
[9] = tested on: ds17 (DNA, duplex) CCAGTTCGTAGTAACCC/GGGTTACTACGAACTGG; test: fluorescence enhancement and lifetime (TCSPC); details: K+ 100 mM; 10 mM lithium cacodylate, pH 7.3; 2 μM compound
[10] = tested on: PDGF-A (DNA, G4) GGAGGCGGGGGGGGGGGGGCGGGGGCGGGGGCGGGGGAGGGGCGCGGC; test: fluorescence enhancement and lifetime (TCSPC); details: K+ 100 mM (DNA annealed in 25 mM KCl); 10 mM lithium cacodylate, pH 7.3; 2 μM compound

| Structure (SMILES) | K a [1] | K a [2] | K a [3] | K a [4] | K a [5] | binding [6] | binding [7] | binding [8] | binding [9] | binding [10] |
| --- | --- | --- | --- | --- | --- | --- | --- | --- | --- | --- |
| CCCn1c2cccc3oc4cccc5c4c(c4c1cccc4[n+]5CCC)-c32 | 1.0 ± 0.2 × 10^6 M^-1 | 1.2 ± 0.4 × 10^6 M^-1 | 8.4 ± 2.9 × 10^5 M^-1 | 1.6 ± 1.5 × 10^6 M^-1 | 2.1 ± 0.3 × 10^6 M^-1 |  |  |  |  |  |
| c1cc2oc3cccc4c3c3c5c(cccc5[n+]4CCN4CCOCC4)n(CCN4CCOCC4)c(c1)c2-3 |  |  |  |  |  | yes | yes | yes | yes | yes |
